# Where “and” joins values, the source holds several entries; their conditions need not be identical. Equal values may be shown once.
# What was measured:
# Assay type in all cases: in vivo, human
# plasma CCK = test: Plasma CCK concentrations by radioimmunoassay
# Procedure: (§1) Once the catheter was positioned correctly, fasting motility was monitored until the occurrence of phase III of the interdigestive migrating motor complex (MMC). Immediately after the cessation of phase III activity [at time t=−15 min], a baseline venous blood sample was taken, and a visual analog scale questionnaire (VAS) (see Measurements), assessing appetite-related sensations, was administered. At t=0 min (i.e., during phase I of the MMC), the duodenal infusion of 1) C12, 2) C10, or 3) control solution was commenced and continued for 90 min. APD pressures were monitored throughout the infusion period; blood samples were taken, and the VAS administered every 15 min from t=0 min until t=90 min. At t=90 min, the infusion was terminated, and the subject was immediately extubated and offered a cold buffet-style meal, the composition of which is provided in Table 1. The amount of food offered was in excess of what the subject was expected to consume. The subject was given 30 min (i.e., t=90 min to t=120 min) to consume the meal and instructed to eat until comfortably full. After ingestion of the meal, the subject was monitored for a further 30 min, a further VAS was completed, and blood samples were taken at t=120 and 150 min. The intravenous cannula was then removed, and the subject was allowed to leave the laboratory.
# Venous blood samples (10 ml) were collected in ice-chilled EDTA-treated tubes containing 400 kIU aprotinin (Trasylol, Bayer Australia) per millilitre of blood. Plasma was separated by centrifugation (3,200 rpm, 15 min, 4° C.) within 30 min of collection and stored at −70° C. until assayed.
# Plasma CCK concentrations (in pmol/l) were determined after ethanol extraction using a previously described radioimmunoassay (3). A commercially available antibody (C258, Lot 105H4852, Sigma Chemical) raised in rabbits against the synthetic sulfated CCK-8 was employed. […] The intra-assay coefficient of variation (CV) was 9% and the interassay CV was 27%, with a sensitivity of 2.5 pmol/l. The sensitivity of the assay relates to its reliable detection limit.
# [1] = Antropyloroduodenal (APD) pressures by manometry during intraduodenal infusion
# From the text: Subjects attended the laboratory at 0830 after fasting from 2200 the previous night from both solids and liquids. They were intubated with a 17-channel manometric catheter (Dentsleeve; Adelaide, South Australia, Australia) that was inserted through an anesthetized nostril and allowed to pass through the stomach and into the duodenum by peristalsis. The manometric catheter, which consisted of 16 sideholes spaced at 1.5-cm intervals, measures pressures in the antrum, pylorus, and duodenum. Six side holes (channels 1-6) were positioned in the antrum, a 4.5-cm sleeve sensor (channel 7), with two channels present on the back of the sleeve (channels 8 and 9), designed to measure pressure waves occurring over the entire pyloric region, were positioned across the pylorus, and seven channels were positioned in the duodenum (channels 10-16). An additional channel, used for intraduodenal infusions, was positioned 11.75 cm distal to the end of the sleeve sensor. The correct positioning of the catheter, so the sleeve sensor straddled the pylorus, was maintained by continuous measurement of the transmucosal potential difference (TMPD) between the most distal antral channel (channel 6; approximately −40 mV) and the most proximal duodenal channel (channel 10; ˜0 mV). For this purpose, an intravenous cannula filled with sterile saline was placed subcutaneously in the left forearm and used as a reference electrode. All manometric channels were perfused with degassed, distilled water except for the two TMPD channels, which were perfused with degassed 0.9% saline at 0.15 ml/min. An intravenous cannula was also placed into a right forearm vein for blood sampling to measure plasma CCK and GLP-1 concentrations.
# as §1
# APD pressures. Manometric pressures were digitized, recorded on a computer-based system (PowerMac 7100/75, Apple Computers; Cupertino, Calif.) running commercially available software (HAD, Associate Prof. G S Hebbard, Melbourne, Australia) written in LabView 3.1.1 (National Instruments), and stored for subsequent analysis. APD pressures were analysed for 1) number and amplitude of isolated pyloric pressure waves (IPPWs) and pressure waves (PWs) in the antrum and duodenum and 2) number and length of PW sequences (PWSs) in the duodenum using custom-written software (Gastrointestinal Motility Unit; Utrecht, The Netherlands) modified to our requirements. […]
# [2] = Tolerability of intraduodenal fatty acid infusion (pilot study and randomized study)
# Procedure: Fatty acid solutions were prepared using 5.3 g of commercially available food grade saturated free fatty acids, lauric (C12:0) and decanoic (C10:0) acid (Sigma-Aldrich; Milwaukee, Wis.). C12 was dissolved in 0.89 g NaOH (Sigma-Aldrich; St. Louis, Mo.) and distilled water to a total volume of 250 ml. C12 was maintained in solution by heating it to 37° C., with a resulting pH of 8.2. C10 was also dissolved in NaOH (1.21 g), and the pH of the C10 and control (distilled water) solutions was adjusted to 8.2 by the addition of NaOH. All solutions were prepared on the morning of the study and infused at 37° C. […] We chose to infuse the fatty acid and control solutions intraduodenally to ensure uniformity of doses across subjects and study days.
# However, during the C12 infusion, the first subject tested reported severe nausea and only tolerated the infusion for 30 min. A second subject, who again reported severe nausea, tolerated the infusion for 60 min.
# [3] = Energy intake from the buffet meal after intraduodenal infusion
# Procedure: Each subject was studied on three occasions, separated by 3-10 days, to evaluate, in a double-blind, randomized fashion, the effects of intraduodenal infusions of 1) C12, 2) C10, or 3) control solution for 90 min on appetite perceptions, energy intake, APD pressures, and plasma CCK and GLP-1 concentrations.
# as §1
# Energy intake from the buffet meal [energy consumption (in kJ) and macronutrient distribution (in % and g energy)] was analyzed using commercially available software (Food works 3.0, Xyris Software; Highgate Hill, Queensland, Australia). The time taken to finish the meal (in min) was also evaluated.
# [4] = 90 min infusion, compared with control
# [5] = buffet meal, compared with control
smiles,measurement,setting,value
"CCCCCCCCCCCC(=O)O [C12, lauric acid]",plasma CCK concentrations,"plasma CCK; during 90 min infusion, compared with control",increased plasma CCK compared with control
same,time of rapid rise in plasma CCK,"plasma CCK; from start of infusion, then plateaued",≤ 15 min
same,magnitude of the rise in plasma CCK,"plasma CCK; in the first 15 min of infusion, 0.375 kcal/min",~12 pmol/L
same,plasma CCK level relative to postprandial level,plasma CCK; versus levels after the buffet meal following control infusion,comparable to postprandial levels after the control infusion
same,basal pyloric pressure (tone),[1]; [4],increased basal pyloric pressure
same,number of antral PWs,[1]; [4],decreased the number of antral PWs compared with control
same,number of duodenal PWs,[1]; [4],decreased the number of duodenal PWs
same,number of IPPWs compared with control,"[1]; C12: 0-15, 15-30 and 30-45 min, C10: 0-15 min",increased the number of IPPWs
same,length of antegrade peristalsis in the duodenum,[1]; C12 infusion,did not abolish but did shorten
same,onset of gastrointestinal effects,[1]; C12 infusion 0.375 kcal/min,~15 min
same,amplitude of IPPWs compared with control,[1]; between 0-15 and 15-30 min,increased the amplitude of IPPWs compared with control
same,number of IPPWs compared with C10,[1]; between 15-30 and 30-45 min,increased the number of IPPWs
same,amplitude of IPPWs compared with control,[1]; between 60 and 75 min,decreased the amplitude of IPPWs
same,amplitude of IPPWs compared with C10,[1]; between 75 and 90 min,decreased the amplitude of IPPWs
same,number of duodenal PWSs travelling over three channels (3 to <4.5 cm),[1]; compared with C10,decreased the number of waves that travelled over three channels compared with C10
same,amplitude of antral pressures,"[1]; compared with both C10 and control infusions, trend P=0.080",tended to be lower
same,number of duodenal PWSs travelling over six channels (7.5 to <9 cm),[1]; compared with control,decreased the number of waves that travelled over six channels compared with control
same,number of duodenal PWSs travelling over three channels (3 to <4.5 cm),[1]; compared with control,no difference between C12 or C10 and control
same,number of duodenal PWSs travelling over two channels (1.5 to <3 cm),[1]; compared with control,decreased the number of waves that travelled over two channels compared with control
same,number of waves that travelled over nine channels,[1]; compared with control,decreased the number of waves that travelled over nine channels
same,motor pattern on visual inspection of pressure traces,[1]; intraduodenal infusion 0.375 kcal/min,antral and duodenal PWs were inhibited and pyloric pressures stimulated
same,time the infusion was tolerated,"[2]; pilot study, 0.75 kcal/min (n=1)",~60 min
same,time the infusion was tolerated,"[2]; pilot study, 1 kcal/min (n=1)",~60 min
same,adverse effect limiting the infusion,"[2]; pilot study, 1 kcal/min and 0.75 kcal/min",severe nausea and vomiting
same,adverse effect limiting the infusion,"[2]; pilot study, 1.5 kcal/min",severe nausea
same,time the infusion was tolerated,"[2]; pilot study, 1.5 kcal/min, individual subjects",30 min and 60 min
same,time the infusion was tolerated,"[2]; randomized study, 0.375 kcal/min, one subject with severe nausea",30 min
same,energy intake at buffet meal,"[3]; after 90 min intraduodenal infusion 0.375 kcal/min, compared with control",dramatically decreased energy intake compared with control
same,reduction of energy intake compared with the control infusion,"[3]; all subjects, C12 total energy delivered 141 kJ","~2,857 kJ"
same,amount of energy (in g) ingested from carbohydrate,[3]; [5],reduced
same,amount of energy (in g) ingested from fat,[3]; [5],reduced
same,amount of energy (in g) ingested from protein,[3]; [5],reduced
same,potency as suppressant of energy intake relative to C18:1,"[3]; isoenergetic amounts, intraduodenal, humans",more potent suppressant of energy intake
same,time at which eating from the buffet meal was completed,"[3]; mean±SE, not statistically significant",13 ± 3.5 min
same,energy intake in the absence of nausea,[3]; non-nauseated subjects,inhibited energy intake in the absence of nausea
same,magnitude of the reduction in energy intake,[3]; subjects that did not experience nausea,"~1,801 kJ"
same,magnitude of the reduction in energy intake,[3]; subjects who reported nausea,"~3,840 kJ"

# — patent US20060167094A1, “Satiety agent” (priority 2005, published 2006)
